Experimental findings from patent publication US6833378B2, “Corticotropin releasing factor antagonists” (Pfizer Inc, priority 2000, dated 2004) are described below.

Structures can show the parent of a compound that is named as a salt.

Regarding `CCC(Nc1cc(C)nc(Oc2c(C)cc(Cl)cc2C)c1CO)C(C)O` (centres unmarked) [Example 25, 3-[2-(4-Chloro-2,6-dimethyl-phenoxy)-3-hydroxymethyl-6-methyl-pyridin-4-ylamino]-pentan-2ol], the melting point (usually the temperature of the solid-liquid transition) was 180 to 182 °C.

`CCC(CC)Nc1cc(C)nc(Oc2c(C)cc(C)cc2C)c1NC(=O)CCCl` [Example 2, 3-Chloro-N-[4-(1-ethyl-propylamino)-6-methyl-2-(2,4,6-trimethyl-phenoxy)-pyridin-3-yl]-propionamide] yielded a melting point of 183 to 185 °C. Then `CCC(CC)Nc1cc(C)nc(Nc2c(C)cc(C)cc2C)c1CC(C(=O)OC)C(=O)OC` [Example 129, 2-[4-(1-Ethyl-propylamino)-6-methyl-2-(2,4,6-trimethyl-phenylamino)-pyridin-3-ylmethyl]-malonic acid dimethyl ester], with 136 to 138 °C; and `CCC(CC)Oc1nc(C)nc(Nc2c(C)cc(C)cc2C)c1C(N)=O` [Example 120, 4-(1-Ethyl-propoxy)-2-methyl-6-(2,4,6-trimethyl-phenylamino)-pyrimidine-5-carboxylic acid amide], with 174 to 176 °C; and `CCOC(=S)SCc1c(OC(CC)CC)cc(C)nc1Nc1c(C)cc(C)cc1C` [Example 77, Dithiocarbonic acid O-ethyl ester S-[4-(1-ethyl-propoxy)-6-methyl-2-(2,4,6-trimethyl-phenylamino)-pyridin-3-ylmethyl] ester], with 55 to 57 °C. The figure for `CCC(CC)Oc1cc(C)nc(Nc2c(C)cc(C)cc2C)c1` [Example 90, [4-(1-Ethyl-propoxy)-6-methyl-pyridin-2-yl]-(2,4,6-trimethyl-phenyl)-amine] is 98 to 100 °C; for `CCC(CC)Nc1cc(C)nc(Oc2c(C)cc(OC)cc2C)c1C(N)=O` [Example 262, 4-(1-Ethyl-propylamino)-2-(4-methoxy-2,6-dimethyl-phenoxy)-6-methyl-nicotinamide] it is 184 °C; for `CCC(CC)Oc1cc(C)nc(Nc2c(C)cc(C)cc2C)c1CNC(=O)CCl` [Example 75, 2-Chloro-N-[4-(1-ethyl-propoxy)-6-methyl-2-(2,4,6-trimethyl-phenylamino)-pyridin-3-ylmethyl]-acetamide] it is 142 to 144 °C. The figure for `CCC(COC)Nc1cc(C)nc(Oc2ccc(OC(F)(F)F)cc2)c1[N+](=O)[O-]` (centres unmarked) [Example 1, (1-Methoxymethyl-propyl)-[6-methyl-3-nitro-2-(4-trifluoromethoxy-phenoxy)-pyridin-4-yl]-amine] is 75 to 76 °C; for `CCC(CC)Oc1cc(C)nc(Nc2c(C)cc(C)cc2C)c1C(=O)n1ccnc1` [Example 70, [4-(1-Ethyl-propoxy)-6-methyl-2-(2,4,6-trimethyl-phenylamino)-pyridin-3-yl]-imidazol-1-yl-methanone] it is 120 to 122 °C; for `CCC(CC)Nc1cc(C)nc(Oc2c(C)cc(C)cc2C)c1NC(=O)C(C)Cl` (centres unmarked) [Example 2, 2-Chloro-N-[4-(1-ethyl-propylamino)-6-methyl-2-(2,4,6-trimethyl-phenoxy)-pyridin-3-yl]-propionamide] it is 170 to 172 °C.

Take `CCC(CC)Oc1cc(C)nc(Nc2c(C)cc(C)cc2C)c1NC(=O)CCl` [Example 124, 2-Chloro-N-[4-(1-ethyl-propoxy)-6-methyl-2-(2,4,6-trimethyl-phenylamino)-pyridin-3-yl]-acetamide]: the melting point was 79 to 82 °C. Then `CCC(CC)Oc1cc(C)nc(Nc2c(C)cc(C)cc2C)c1C(N)=O` (as salt: HCl) [Example 78, 4-(1-Ethyl-propoxy)-6-methyl-2-(2,4,6-trimethyl-phenylamino)-nicotinamide], with 185 to 187 °C; and `C#CC(CC)Nc1cc(C)nc(Oc2c(C)cc(C)cc2C)c1C(=O)O` (centres unmarked) [Example 27, 4-(1-Ethyl-prop-2-ynylamino)-6-methyl-2-(2,4,6-trimethyl-phenoxy)-nicotinic acid], with 131 to 133 °C. As to `CCC(CC)Oc1cc(C)nc(Nc2c(C)cc(C)cc2C)c1CN(C)C.Cl`, the melting point lay in the range of 85 to 88 °C.

With `CC[C@H]1COC(=O)N1c1cc(C)nc(Oc2c(C)cc(Cl)cc2C)c1C(=O)OC` [Example 18, 2-(4-Chloro-2,6-dimethyl-phenoxy)-4-(S)-(4-ethyl-2-oxo-oxazolidin-3-yl)-6-methyl-nicotinic acid methyl ester], the melting point lay within 144 to 145.5 °C. Molecule `CCC(CC)Nc1cc(C)nc2c1nc(N)n2-c1c(C)cc(C)cc1C` [Example 170, N7-(1-Ethyl-propyl)-5-methyl-3-(2,4,6-trimethyl-phenyl)-3H-imidazo[4,5-b]pyridine-2,7-diamine] registered a melting point of 158 to 160 °C. The figure for `CCC(CC)Oc1cc(C)nc(Oc2c(C)cc(C)cc2C)c1[N+](=O)[O-]` [Example 60, 4-(1-Ethyl-propoxy)-6-methyl-3-nitro-2-(2,4,6-trimethyl-phenoxy)-pyridine] is 106 to 109 °C; for `CCC(COC)Nc1cc(C)nc(Oc2c(C=O)cccc2OC)c1[N+](=O)[O-]` (centres unmarked) [Example 1, 3-Methoxy-2-[4-(1-methoxymethyl-propylamino)-6-methyl-3-nitro-pyridin-2-yloxy]-benzaldehyde] it is 126.5 to 130.5 °C; for `CCC(CC)Oc1cc(C)nc2c1[nH]c(=O)n2-c1c(C)cc(C)cc1C` [Example 166, 7-(1-Ethyl-propoxy)-5-methyl-3-(2,4,6-trimethyl-phenyl)-1,3-dihydro-imidazo[4,5-b]pyridin-2-one] it is 184 to 186 °C. Then `CCC(CC)Nc1cc(C)nc(Oc2c(C)cc(C)nc2C)c1C(N)=O` [Example 287, 4-(1-Ethyl-propylamino)-6-methyl-2-(2,4,6-trimethyl-pyridin-3-yloxy)-nicotinamide], with 164.3 °C. Then `CCC(COC)Nc1cc(C)nc(Oc2c(OC)cc(OC)cc2OC)c1[N+](=O)[O-]` (centres unmarked) [Example 1, (1-Methoxymethyl-propyl)-[6-methyl-3-nitro-2-(2,4,6-trimethoxy-phenoxy)-pyridin-4-yl]-amine], with 126.8 to 129.5 °C; and `CCC(CC)Oc1nc(C)nc(Nc2c(C)cc(C)cc2C)c1C(=O)O` [Example 160, 4-(1-Ethyl-propoxy)-2-methyl-6-(2,4,6-trimethyl-phenylamino)-pyrimidine-5-carboxylic acid], with 118 to 120 °C.

The molecule `CCC(O)C(CC)Nc1cc(C)nc(Oc2c(C)cc(Cl)cc2C)c1CO` (centres unmarked) [Example 26, 4-[2-(4-Chloro-2,6-dimethyl-phenoxy)-3-hydroxymethyl-6-methyl-pyridin-4-ylamino]-hexan-3-ol] yielded a melting point of 145 to 148 °C. Then `CCC(CC)Nc1cc(C)nc(Oc2c(C)cc(C)cc2C)c1CN` [Example 135, [3-Aminomethyl-6-methyl-2-(2,4,6-trimethyl-phenoxy)-pyridin4-yl]-(1-ethyl-propyl)-amine], with 117 to 119 °C; and `CCC(CC)Nc1cc(C)nc(Nc2c(C)cc(C)cc2C)c1C(N)=O` [Example 119, 4-(1-Ethyl-propylamino)-6-methyl-2-(2,4,6-trimethyl-phenylamino)-nicotinamide], with 204 to 206 °C; and `CCC(Nc1cc(C)nc(Oc2c(C)cc(OC)cc2C)c1C(=O)NC)C(C)OC` (centres unmarked) [Example 284, 4-(1-Ethyl-2-methoxy-propylamino)-2-(4-methoxy-2,6-dimethyl-phenoxy)-6,N-dimethyl-nicotinamide], with 122.6 °C. As for `CCC(CC)Oc1nc(C)nc(Nc2c(C)cc(C)cc2C)c1CO` [Example 161, [4-(1-Ethyl-propoxy)-2-methyl-6-(2,4,6-trimethyl-phenylamino)-pyrimidin-5-yl]-methanol], the melting point lay within 121 to 123 °C. Then `CCC(CC)Oc1cc(C)nc2c1n(C)c(=O)n2-c1c(C)cc(C)cc1C` [Example 167, 7-(1-Ethyl-propoxy)-1,5-dimethyl-3-(2,4,6-trimethyl-phenyl)-1,3-dihydro-imidazo[4,5-b]pyridin-2-one], with 151 to 153 °C; and `CCC(CC)Oc1cc(C)nc(Nc2c(C)cc(C)cc2C)c1C(=O)N(C)C` (as salt: HCl) [Example 80, 4-(1-Ethyl-propoxy)-6,N,N-trimethyl-2-(2,4,6-trimethyl-phenylamino)-nicotinamide], with 197 to 200 °C; and `CCC(CC)Oc1cc(C)nc(Nc2c(C)cc(C)cc2C)c1CC(C(=O)OC)C(=O)OC` [Example 72, 2-[4-(1-Ethyl-propoxy)-6-methyl-2-(2,4,6-trimethyl-phenylamino)-pyridin-3-ylmethyl]-malonic acid dimethyl ester], with 96 to 98 °C. Then `Cc1cc(C)c(Oc2nc(C)cc(C(O)C(F)(F)F)c2C)c(C)c1` (centres unmarked) [Example 99, 1-[3,6-Dimethyl-2-(2,4,6-trimethyl-phenoxy)-pyridin-4-yl]-2,2,2-trifluoro-ethanol], with 134 to 139 °C.
